According to patent US6773897B2, “Method of predicting the clinical response to chemotherapeutic treatment with alkylating agents” (The Johns Hopkins University School of Medicine, priority 2000, dated 2004):
Like-named read-outs stand apart in the source and are kept apart here.

Legend:
MGMT [1] = target: T1, MGMT (Homo sapiens, UniProt P16455); settings: cited from earlier work
T1 sequence (P16455 1-207): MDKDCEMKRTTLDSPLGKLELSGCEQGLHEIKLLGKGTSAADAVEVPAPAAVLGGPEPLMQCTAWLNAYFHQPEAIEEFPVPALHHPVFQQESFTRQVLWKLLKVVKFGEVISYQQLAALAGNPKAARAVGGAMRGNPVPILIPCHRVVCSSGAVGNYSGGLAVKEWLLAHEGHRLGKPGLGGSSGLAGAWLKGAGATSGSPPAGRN

MGMT [2] = target: T1, MGMT; settings: substrate for MGMT; cited from earlier work
[3] = system: grade III or IV gliomas (anaplastic astrocytoma, glioblastoma multiforme); assay: Clinical response, survival and time to progression of gliomas treated with carmustine, by MGMT promoter methylation status; type: in vivo, human
Method: The annealing temperature was 59° C.
Contingency tables were analyzed by Fisher's exact test.
Specimens of brain tumors from 47 consecutive subjects referred to the University Hospital of Navarre, in Pamplona, Spain, between April 1993 and November 1998 were studied. All the subjects provided written informed consent. […] Subjects were 38 to 70 years old (median age at diagnosis, 55 years); 30 were men, and 17 were women. Tumor specimens were obtained by resection or biopsy performed before the initiation of treatment with radiation and chemotherapy and were immediately frozen and stored at −80° C. All subjects were treated with intraarterial cisplatin (50 mg per square meter of body-surface area), whole-brain radiotherapy, and a median of three courses of intravenous carmustine (1,3-bis(2-chloroethyl)-1-nitrosourea, or BCNU; 100 mg per square meter) given at four-week intervals. Fifteen of the subjects also underwent autologous bone marrow transplantation plus high-dose chemotherapy treatment with three doses of intravenous carmustine (300 mg per square meter) per day and one dose of intraarterial cisplatin (100 mg)
The response to treatment was evaluated after the subjects had completed therapy. A complete response was defined as the absence of any evidence of the tumor on computed tomographic (CT) and magnetic resonance imaging (MRI) scans, with no need for steroid treatment and an improvement in the subject's general condition. Subjects with persistent CT abnormalities but with more than a 50 percent reduction in both the diameter and the volume of the tumor, a reduced need for steroid treatment, and a stabilized neurologic condition were considered to have a partial response. The disease was considered to have progressed if both the diameter and volume of the tumor increased by 25 percent or more of the initial measurements, if a new lesion was evident on CT or MRI scans, or if the subject's neurologic condition worsened and required an increased dose of steroids.
Forty-seven newly diagnosed grade III or IV gliomas (classified as anaplastic astrocytoma in 18 subjects and as glioblastoma multiforme in 29) were analyzed. Methylation of the MGMT promoter was found in 19 of the 47 tumors (40 percent) a frequency similar to that found in a previous study (Estellar, 1999, supra) and consistent with that in other reports (Silber et al., Cancer Res 1993; 53:3416-3420; and Silber et al., Cancer Res 1998; 58:1068-1073). Methylation was not associated with the subject's age, the Karnofsky score for performance status, or the grade of the tumor (P>0.3 for each comparison).

[4] = system: diffuse large B-cell lymphoma (B-DLCL)
Method: DNA was extracted according to standard protocols known to those of skill in the art (see, e.g., Sambrook et al., Molecular Cloning: a Laboratory Manual, 2nd Ed.; Cold Spring Harbor Laboratory Press, Plainview, N.Y., 1998, herein incorporated by reference). Methylation patterns in the CpG island of MGMT were determined by chemical modification of unmethylated, but not methylated, cytosines to uracil. Methylation-specific polymerase chain reaction (PCR) was performed with primers specific for either methylated or the modified unmethylated DNA, as previously described (Esteller, et al. Cancer Res 1999; 59:793-797; incorporated herein by reference in its entirety; and Herman et al. Proc Natl Acad Sci USA 1996;93:9821-9826; incorporated herein by reference in its entirety). DNA (1 μg) was denatured with sodium hydroxide and modified with sodium bisulfite. DNA samples were then purified with the Wizard DNA purification resin (Promega, Madison, Wis.), again treated with sodium hydroxide, precipitated with ethanol, and resuspended in water. Primer sequences for the unmethylated reaction were 5′[…]3′ (forward primer; SEQ ID NO:1) and 5′[…]3′ (reverse primer; SEQ ID NO:2), and for the methylated reaction they were 5′[…]3′ (forward primer; SEQ ID NO:3) and 5′[…]3′ (reverse primer; SEQ ID NO:4). The annealing temperature was 59° C. Placental DNA treated in vitro with Sss I methyltransferase (New England Biolabs, Beverly, Mass.) was used as a positive control for methylated alleles of MGMT, and DNA from normal lymphocytes was used as a negative control. Controls without DNA were used for each set of methylation-specific PCR assays. Ten microliters of each 50-μl methylation-specific PCR product was loaded directly onto nondenaturing 6 percent polyacrylamide gels, stained with ethidium bromide, and examined under ultraviolet illumination.
Continuous variables were compared with the use of Student's t-test. Contingency tables were analyzed by Fisher's exact test. Disease-free and overall survival curves were estimated by the Kaplan-Meier method and were compared with the use of the log-rank test. Multivariate survival analyses were performed with the Cox proportional-hazards model, and proportional-hazards assumptions were checked with the use of Schoenfeld residuals and graphic methods. Descriptive or stratified analyses always preceded parametric modeling in order to confirm that the assumptions underlying the models were met. The results are reported as two-sided P values with 95 percent confidence intervals. Analyses were performed with the use of JMP software (version 3.1, SAS Institute, Cary, N.C.) and Stata software (version 6.0, Stata, College Station, Tex.).
Clinical follow-up was obtained until Aug. 31, 1999 or until death. […] Diagnosis was based on histopathology, immunophenotypic analysis of cell surface markers, and immunogenotypic analysis of immunoglobulin gene rearrangement. The histopathologic definition of B-DLCL was according to the REAL classification (Harris N L, et al., Blood. 1994;84:1361-92). Subjects positive for human immunodeficiency virus were not included in the study. Staging included routine blood chemistry tests; blood cell counts and differential; EKG; chest x-ray; computed tomography of chest, abdomen and pelvis; and bilateral bone marrow biopsy in all subjects. Disease stage was assessed according to Ann Arbor criteria (Carbone P P, et al., Cancer Res. 1971;31:1860-1). The International Prognostic […] (IPI) was calculated as described (The International Non-Hodgkin's Lymphoma Prognostic Factors Project. A predictive model for aggressive non-Hodgkin's lymphoma. N Engl J Med. 1993;329:987-94), with subjects classified as Low, Low-Intermediate, High-Intermediate, and High risk.
Treatment varied, depending on stage of disease, date of diagnosis, institution and prognostic factors.

[5] = subjects with MGMT methylation (N=30)
[6] = subjects without methylation (N=54)

SMILES: Nc1nc(OCc2ccccc2)c2nc[nH]c2n1 [O^6-benzylguanine]
- effect on sensitivity to cyclophosphamide metabolites (MGMT [1]): increase sensitivity to cyclophosphamide metabolites
- effect on response to alkyl nitrosoureas (MGMT [1]; in vitro and in vivo): enhance the response to alkyl nitrosoureas in vitro and in vivo
- effect on MGMT enzyme (MGMT [2]): inactivates the enzyme

SMILES: O=NN(CCCl)C(=O)NCCCl [carmustine, 1,3-bis(2-chloroethyl)-1-nitrosourea]
- risk of death, hazard ratio ([3]; lack of methylation vs methylation, univariate, 95% CI 3.0 to 42.7): 9.5
- Complete response, % (95% CI) ([3]; methylated (N=19)): 11 (1-33) %
- No Change, % (95% CI) ([3]; methylated (N=19)): 16 (3-38) %
- Partial response, % (95% CI) ([3]; methylated (N=19)): 52 (29-76) %
- Progression, % (95% CI) ([3]; methylated (N=19)): 21 (6-44) %
- median time to the progression of disease ([3]; methylated gliomas): 21 months
- time to progression, hazard ratio associated with nonmethylation ([3]; nonmethylation vs methylation, 95% CI 4.4 to 30.8): 10.8
- partial or complete response to carmustine ([3]; subjects with methylated MGMT promoter tumors (N=19)): 63%
- partial or complete response to carmustine ([3]; subjects with unmethylated MGMT promoter tumors (N=28)): 4%
- Complete response, % (95% CI) ([3]; unmethylated (N=28)): 0 (0-12) %
- No Change, % (95% CI) ([3]; unmethylated (N=28)): 14 (4-33) %
- Partial response, % (95% CI) ([3]; unmethylated (N=28)): 4 (0-18) %
- Progression, % (95% CI) ([3]; unmethylated (N=28)): 82 (63-94) %
- median time to the progression of disease ([3]; unmethylated gliomas): 8 months

SMILES: O=P1(N(CCCl)CCCl)NCCCO1 (stereo not shown) [cyclophosphamide]
- CR (complete remission) [4, 5]: 77%
- NR [4, 5]: 10%
- PR (partial remission) [4, 5]: 13%
- NR [4, 6]: 22%
- PCR (complete remission) [4, 6]: 63%
- PR (partial remission) [4, 6]: 15%
- time to death, hazard ratio for non-methylation ([4]; univariate, 95% CI 1.2 to 7.5, p=0.01): 2.8
- disease progression, hazard ratio without vs with methylation ([4]; univariate, 95% CI 1.3 to 5.8, p=0.005): 2.6
